Assay results from patent publication US20100261736A1, “SUBSTITUTED BICYCLIC HETEROARYL COMPOUNDS FOR THE TREATMENT OF CARDIOVASCULAR DISEASE” (priority 2007, published 2010).

target: T1, Prostacyclin receptors (IP receptors) of human thrombocyte membranes (Homo sapiens, UniProt P43119); assay: Binding to prostacyclin receptors (IP receptors) of human thrombocyte membranes, 3H-Iloprost displacement; settings: 3 nM 3H-Iloprost, 60 min, room temperature
T1 construct: Thrombocyte membranes are obtained by centrifuging 50 ml of human blood
Experimental: B-1. Studies of Binding to Prostacyclin Receptors (IP Receptors) of Human Thrombocyte Membranes
Thrombocyte membranes are obtained by centrifuging 50 ml of human blood (Buffy coats with CDP Stabilizer, from Maco Pharma, Langen) for 20 min at 160×g. Remove the supernatant (platelet-rich plasma, PRP) and then centrifuge again at 2000×g for 10 min at room temperature. Resuspend the sediment in 50 mM tris(hydroxymethyl)aminomethane, which has been adjusted to a pH of 7.4 with 1 N hydrochloric acid, and store at −20° C. overnight. On the next day, centrifuge the suspension at 80 000×g and 4° C. for 30 min. Discard the supernatant. Resuspend the sediment in 50 mM tris(hydroxymethyl)aminomethane/hydrochloric acid, 0.25 mM ethylene diamine tetraacetic acid (EDTA), pH 7.4, and then centrifuge once again at 80 000×g and 4° C. for 30 min. Take up the membrane sediment in binding buffer (50 mM tris(hydroxymethyl)-aminomethane/hydrochloric acid, 5 mM magnesium chloride, pH 7.4) and store at −70° C. until the binding test.
For the binding test, incubate 3 nM ^3H-Iloprost (592 GBq/mmol, from AmershamBioscience) for 60 min with 300-1000 μg/ml of human thrombocyte membranes per charge (max. 0.2 ml) in the presence of the test substances at room temperature. After stopping, add cold binding buffer to the membranes and wash with 0.1% bovine serum albumin. After adding Ultima Gold Scintillator, quantify the radioactivity bound to the membranes using a scintillation counter. The nonspecific binding is defined as radioactivity in the presence of 1 μM Iloprost (from Cayman Chemical, Ann Arbor) and is as a rule <25% of the bound total radioactivity. The binding data (IC50 values) are determined using the program GraphPad Prism Version 3.02.

T1 sequence (P43119 whole entry): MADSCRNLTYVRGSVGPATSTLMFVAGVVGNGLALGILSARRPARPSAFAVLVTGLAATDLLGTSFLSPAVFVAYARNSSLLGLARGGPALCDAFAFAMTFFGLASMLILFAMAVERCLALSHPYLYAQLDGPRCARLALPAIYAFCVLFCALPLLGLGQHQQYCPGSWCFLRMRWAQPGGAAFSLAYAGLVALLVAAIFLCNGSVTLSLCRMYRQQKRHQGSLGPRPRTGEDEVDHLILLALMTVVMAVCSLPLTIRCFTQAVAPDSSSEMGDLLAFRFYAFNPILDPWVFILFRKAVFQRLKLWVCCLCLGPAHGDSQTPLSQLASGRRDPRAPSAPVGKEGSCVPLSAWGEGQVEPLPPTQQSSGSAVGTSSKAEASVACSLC

| Compound | IC50 |
| --- | --- |
| CCc1ccc(-c2c(-c3ccccc3)oc3nccc(OCCOCCC(=O)O)c23)cc1 [Example 29] | 1700 nM |
| COc1ccc(-c2c(-c3ccccc3)[nH]c3ncnc(O[C@H](C)CCCCC(=O)O)c23)cc1 [Example 5, (6R)-6-{[5-(4-Methoxyphenyl)-6-phenyl-7H-pyrrolo[2,3-d]pyrimidin-4-yl]oxy}heptanoic acid] | 39 nM |
| COc1ccc(-c2c(-c3ccccc3)oc3cccc(OCCCCCC(=O)O)c23)cc1 [Example 12, 6-{[3-(4-Methoxyphenyl)-2-phenyl-1-benzofuran-4-yl]oxy}hexanoic acid] | 984 nM |

Results, then the compound that gave them:

| IC50 | Compound |
| --- | --- |
| 98 nM | COc1ccc(-c2c(-c3ccccc3)oc3ccnc(NCC(C)(C)COCC(=O)O)c23)cc1 [Example 19, (3-{[3-(4-Methoxyphenyl)-2-phenylfuro[3,2-c]pyridin-4-yl]amino}-2,2-dimethylpropoxy)acetic acid] |
| 39 nM | CCc1ccc(-c2c(-c3ccccc3)oc3nccc(O[C@H](C)CCCCC(=O)O)c23)cc1 [Example 28, (6R)-6-{[3-(4-ethylphenyl)-2-phenylfuro[2,3-b]pyridin-4-yl]oxy}heptanoic acid] |
| 35 nM | CCc1ccc(-c2c(-c3ccccc3)oc3nccc(NCC(C)(C)COCCC(=O)O)c23)cc1 [Example 21, 3-(3-{[3-(4-Ethylphenyl)-2-phenylfuro[2,3-b]pyridin-4-yl]amino}-2,2-dimethylpropoxy)-propanoic acid] |
| 208 nM | CCc1ccc(-c2c(-c3ccccc3)sc3ncnc(O[C@H](C)CCCCC(=O)O)c23)cc1 [Example 9, (6R)-6-{[5-(4-ethylphenyl)-6-phenylthieno[2,3-d]pyrimidin-4-yl]oxy}heptanoic acid] |

tested on: not given; assay: not given; settings: non-enzymatic transformation to inactive metabolite 6-keto-prostaglandin-F1alpha; cited from earlier work

| Compound | half-life |
| --- | --- |
| CCCCC[C@H](O)/C=C/[C@@H]1[C@H]2C/C(=C/CCCC(=O)O)O[C@H]2C[C@H]1O [PGI2] | approx. 3 minutes |
